Experimental data: article PMC3369139, “Preclinical evaluation of two ^68Ga-siderophores as potential radiopharmaceuticals for Aspergillus fumigatus infection imaging” (European Journal of Nuclear Medicine and Molecular Imaging, 2012)
“And” between values parts separate entries of the source, which are not always exact repeats. Equal values may be shown once.

Columns and labels:
[1] = Biodistribution in normal Balb/c mice; type: in vivo; conditions: normal noninfected Balb/c mice, i.v. tail vein
Procedure: Normal noninfected Balb/c mice (female, 6 weeks old) were injected with ^68Ga-siderophore (2 MBq and 0.1–0.2 μg of siderophore per mouse) into the tail vein. Animals were killed by cervical dislocation 30 min and 90 min after injection. The organs and tissues (blood, spleen, pancreas, stomach, intestines, kidneys, liver, heart, lungs, muscle and femur) were removed and radioactivity was counted in a γ-counter. The results are expressed as percentage of injected dose per gram of tissue.

A. fumigatus [2] = assay: PET imaging in rat A. fumigatus infection model; type: in vivo, Lewis rats; conditions: infected rats, lungs, mean ± sd
Procedure: (§1) Female or male Lewis rats (2–3 months old), weighing 200–250 g, were treated as described previously. Briefly, the rats received repeated intraperitoneal injections of cyclophosphamide to induce neutropenia before A. fumigatus administration. To prevent bacterial superinfection, the animals were given antibiotics throughout the experiment. Fungal infection was established by intratracheal administration of 100–300 μl of A. fumigatus inoculum in various concentrations (1 × 10^5 to 1 × 10^9 conidia per millilitre). Animals were injected intravenously 1–3 days (depending on the severity of infection) after A. fumigatus administration with ^68Ga-labelled siderophore (10–20 MBq and 1–2 μg of siderophore per rat). The rats were imaged or killed by overdosing with thiopental (Sandoz, Kundl, Austria) 2 h after injection. Various organs and tissues (blood, spleen, kidneys, liver and lungs) were removed and radioactivity was measured in a γ-counter. The excised organs were investigated for the presence of fungi, as described below.
PET images were acquired with an Inveon animal PET/CT scanner (Siemens Preclinical Solutions, Knoxville, TN) with an intrinsic spatial resolution of 1.5 mm. The animals were placed in a prone position. Static PET images were acquired over 30 min starting 30 min after intravenous injection of ^68Ga-siderophore. Dynamic PET imaging was started upon injection and continued up to 60 min after injection. In addition, combined PET/CT scans were performed for anatomical reference. PET emission scans were acquired for 30 min, preceded by CT scans (spatial resolution 113 μm, 80 kV, 500 μA, exposure time 300 ms). After imaging, animals were killed by CO2/O2. Scans were reconstructed using Inveon Acquisition Workplace software (version 1.5; Siemens Preclinical Solutions, Knoxville, TN) using a 3-D ordered subset expectation maximization/maximum a posteriori (OSEM3D/MAP) algorithm with the following parameters: matrix 256 × 256 × 159, pixel size 0.43 × 0.43 × 0.8 mm^3 and a MAP prior β-value of 1.5.

Stability in human serum = type: in vitro ADME
Procedure: (§2) TAFC and FOXE were labelled with ^68Ga using acetate buffer at room temperature for 15 min (TAFC) and at 80 °C for 20 min (FOXE). For all in vitro and in vivo studies, the pH of the final product was adjusted with 1.1 M sodium acetate to pH 6–7. The radiochemical purity, log P, protein binding and stability of ^68Ga-siderophores in various media were determined, as described previously.

[3] = Protein binding in human serum; type: in vitro ADME
Procedure: as §2

Stability in 0.1 M FeCl3 = type: physicochemical
Procedure: as §2

[4] = Metabolic stability in normal Balb/c mice (RP-HPLC of urine, blood, liver and kidney homogenates); type: in vivo; conditions: 30 min p.i., % intact on RP-HPLC
Procedure: Urine, blood, liver and kidneys of normal Balb/c mice injected with ^68Ga-siderophores and treated as described previously were collected 30 min after injection. The urine sample was directly injected onto the RP-HPLC column. Blood samples were precipitated with acetonitrile and centrifuged for 2 min, and the supernatant was injected onto the RP-HPLC column. Liver and kidneys were washed in the ice-cold TRIS buffer and liquidized using a mixer in a falcon tube containing 1 ml of TRIS buffer. The liver and kidney homogenates obtained were mixed with acetonitrile and centrifuged for 2 min, and the supernatant was injected onto the RP-HPLC column. In all cases 1 min fractions of the column eluate were collected and measured in a γ-counter. Samples were not collected at 90 min after injection because the measured activity was already low in the samples obtained 30 min after injection. All metabolic studies were performed using a previously described HPLC method.

A. fumigatus [5] = assay: Ex vivo biodistribution in rat A. fumigatus infection model, iron preload; set-up: species or system Lewis rats
Procedure: (§3) The A. fumigatus (A29) isolate was grown on Sabouraud dextrose agar (BD) for 5 days at 37 °C, and the conidia were harvested in 2 ml of sterile NaCl by gently rubbing with a pipette tip. The conidia suspension was transferred into a sterile 50 ml plastic tube. After homogenization (vortex) and filtration (40 μm nylon cell strainer; BD), the suspension was counted in a Neubauer chamber and adjusted to the volitional concentration in the range 1 × 10^5 to 1 × 10^9 conidia per millilitre.
as §1
Rats were treated as in the ‘standard’ infection model above, except that iron solution (FerMed; Medice, Iserlohn, Germany) 10 mg/kg was injected intraperitoneally three times (1 week, 4 days and 1 day) before A. fumigatus administration.
(§4) The excised organs were homogenized in a petri dish using a sterile surgical blade and transferred to Sabouraud dextrose agar (BD) plates. The plates were incubated at 37 °C and examined daily for 7 days. […] Severe infection was defined as the presence of severe fungal growth 1 day after incubation, mild infection was defined as the presence of minor growth up to 3 days after incubation, and no infection was defined as lack of growth within 1 week of incubation.

Stability in 6 mM DTPA = type: physicochemical
Procedure: as §2

[6] = Log P of ^68Ga-siderophores; type: physicochemical; conditions: determined as described previously [20]
Procedure: as §2

[7] = tested on: A. fumigatus wild-type ATCC46645; assay: In vitro uptake of ^68Ga-siderophores by A. fumigatus cultures; type: cell-based, Aspergillus fumigatus; conditions: room temperature
Procedure: The Aspergillus strain used for in vitro studies was A. fumigatus wild-type ATCC46645 (American Type Culture Collection) cultured at 37 °C in Aspergillus minimal medium, containing 1 % glucose as the carbon source, 20 mM glutamine as the nitrogen source, salts and trace elements, as described previously. Iron-sufficient media contained […] FeSO4. For preparation of iron-deficient media, iron addition was omitted. Iron-deficient conditions were verified by detection of extracellular siderophore production, which is suppressed by iron.
Uptake by A. fumigatus in iron-deficient and iron-sufficient cultures was studied. For the monitoring of uptake over time, ^68Ga-siderophores (5 ng) were incubated in microbial media for 10, 20, 30, 45, 60 and 90 min at room temperature in 96-well plates (Millipore, Billerica, MA). For the monitoring of uptake blocking, excess of ferri-siderophore (Fe-TAFC or Fe-FOXE) and/or sodium azide was used. ^68Ga-siderophores were incubated in iron-deficient and iron-sufficient media for 45 min at room temperature in 96-well plates. The incubation was interrupted in both cases by filtration of the medium and rapid rinsing with ice-cold TRIS buffer. The filters were collected and counted in a γ-counter.

A. fumigatus [8] = assay: Ex vivo biodistribution in rat A. fumigatus infection model, standard; set-up: species or system Lewis rats
Procedure: as §3, §1, §4

[9] = iron preload model, 2 h after injection

## O=C1CCC(=O)N([O-])CCCCCNC(=O)CCC(=O)N([O-])CCCCCNC(=O)CCC(=O)N([O-])CCCCCN1.[68Ga+3] [^68Ga-FOXE, ferrioxamine E]
[1]; 30 min after injection
  Blood level: 2.4 ± 0.86 %ID/g
  Intestinal accumulation: 4.6 ± 1.42 %ID/g
[1]; 90 min after injection
  Intestinal accumulation: 2.4 ± 0.85 %ID/g
A. fumigatus [2]; calculated from PET imaging studies, n=10 (table)
  SUV: 1.00 ± 0.81 (n=10)
A. fumigatus [2]; calculated from all PET imaging studies, n=13
  Target/non-target ratio: 6.64 ± 2.91 (n=13)
Stability in human serum; human serum, 0.1 M FeCl3 and 6 mM DTPA, summary bound over all media
  Stability in all of the tested media: ≥ 90%
Stability in human serum; incubation time 30 min
  Stability in human serum (%): 99.9%
Stability in human serum; incubation time 60 min
  Stability in human serum (%): 99.9%
Stability in human serum; incubation time 120 min
  Stability in human serum (%): 99.9%
[3]; incubation time 30 min
  Protein binding (%): 0.27%
[3]; incubation time 60 min
  Protein binding (%): 0.24%
[3]; incubation time 120 min
  Protein binding (%): 0.53%
Stability in 0.1 M FeCl3; incubation time 30 min
  Stability in 0.1-M FeCl3 (%): 92.9%
Stability in 0.1 M FeCl3; incubation time 60 min
  Stability in 0.1-M FeCl3 (%): 91.8%
Stability in 0.1 M FeCl3; incubation time 120 min
  Stability in 0.1-M FeCl3 (%): 94.5%
[4]
  Stability in kidney homogenate (%): 97.6%
  Stability in liver homogenate (%): 71.3%
[4]; γ-counter
  Stability in urine (%): 95.9%
[4]; acetonitrile precipitation
  Stability in blood (%): 97.7%
A. fumigatus [5]; iron preload model (10 mg/kg i.p. three times), severely infected rats, lungs 2 h after injection, n in cell
  Severe infection (%ID/g - lungs): 1.72 (n=1) %ID/g
A. fumigatus [5]; [9]
  Lung/blood ratio, control: 0.64 (n=2)
  Lung/blood ratio, mild infection: 0.81 (n=2)
  Lung/blood ratio, severe infection: 2.41 (n=1)
  Lung/kidneys ratio, control: 0.06 (n=2)
  Lung/kidneys ratio, mild infection: 0.12 (n=2)
  Lung/kidneys ratio, severe infection: 0.11 (n=1)
  Lung/liver ratio, control: 0.58 (n=2)
  Lung/liver ratio, mild infection: 1.17 (n=2)
  Lung/liver ratio, severe infection: 5.93 (n=1)
A. fumigatus [5]; iron preload model, mildly infected rats, lungs 2 h after injection, n in cell
  Mild infection (%ID/g - lungs): 0.14 (n=2) %ID/g
A. fumigatus [5]; iron preload model, rats showing no infection, lungs 2 h after injection, n in cell
  Control (%ID/g - lungs): 0.04 (n=2) %ID/g
Stability in 6 mM DTPA; incubation time 30 min
  Stability in 6-mM DTPA (%): 94.3%
Stability in 6 mM DTPA; incubation time 60 min
  Stability in 6-mM DTPA (%): 93.8%
Stability in 6 mM DTPA; incubation time 120 min
  Stability in 6-mM DTPA (%): 93.2%
[6]
  Log P: −1.65
[7]; 5 ng ^68Ga-siderophore, 10-90 min, 96-well plates, filtration, γ-counter
  Uptake by A. fumigatus in iron-deficient cultures: rapid uptake
[7]; iron-deficient cultures, 45 min incubation
  Blocking of uptake with excess of ferri-siderophore and/or sodium azide: could be blocked
A. fumigatus [8]; 2 h after injection
  Lung/blood ratio, control (mean ± sd): 1.48 ± 0.33 (n=5)
  Lung/blood ratio, mild infection (mean ± sd): 5.45 ± 5.57 (n=4)
  Lung/blood ratio, severe infection (mean ± sd): 62.35 ± 77.98 (n=5)
  Lung/kidneys ratio, control (mean ± sd): 0.07 ± 0.02 (n=5)
  Lung/kidneys ratio, mild infection (mean ± sd): 0.38 ± 0.42 (n=4)
  Lung/kidneys ratio, severe infection (mean ± sd): 3.33 ± 2.85 (n=5)
  Lung/liver ratio, control (mean ± sd): 0.87 ± 0.27 (n=5)
  Lung/liver ratio, mild infection (mean ± sd): 5.45 ± 5.85 (n=4)
  Lung/liver ratio, severe infection (mean ± sd): 47.79 ± 39.48 (n=5)
A. fumigatus [8]; mildly infected rats, lungs ex vivo 2 h after injection, n in cell
  Mild infection (%ID/g - lungs) (mean ± sd): 0.48 ± 0.54 %ID/g and 0.48 ± 0.54 (n=4) %ID/g
A. fumigatus [8]; rats showing no infection, lungs ex vivo 2 h after injection, n in cell
  Control (%ID/g - lungs) (mean ± sd): 0.04 ± 0.02 %ID/g and 0.04 ± 0.02 (n=5) %ID/g
A. fumigatus [8]; severely infected rats, lungs ex vivo 2 h after injection, γ-counter, n in cell
  Severe infection (%ID/g - lungs) (mean ± sd): 3.45 ± 1.00 (n=5) %ID/g
